Blank lines part the entries; values can stand above or below the compound they belong to.
Legend:
[1] = Stability testing of solid COMPOUND (powder in glass vial, HPLC 1 area vs reference stored at -20° C.); type: physicochemical; settings: 260 nm
Method: Samples were directly analyzed by HPLC without dilution (expected concentration 1000 μg/mL). The HPLC area of each treated sample was compared to the HPLC area of the reference samples.
HPLC system: High pressure mixing Shimadzu Prominence (HPLC_08_DAD); Flow: 1.5 mL/min; Column temperature: 50° C.; Autosampler temperature: 25° C.; Injection volume: 3.0 μL; Column: Waters XBridge BEH C18 2.5 μm 2.1*50 mm Column XP; Wavelength: DAD 260 nm

[2] = log P measured in octanol/phosphate buffer saline pH 7.4; type: physicochemical
Source text: […]

[3] = target: T1, C5AR1 (Homo sapiens, UniProt P21730); experiment: In vitro assay: CHO-K1 C5AR1 beta-arrestin cell line (PathHunter), antagonism of C5a; type: cell-based; settings: 1-10 nM C5a agonist; geometric mean; read-out: antagonistic activity (IC50)
T1 construct: host or cells: CHO-K1
T1 sequence (P21730 1-350): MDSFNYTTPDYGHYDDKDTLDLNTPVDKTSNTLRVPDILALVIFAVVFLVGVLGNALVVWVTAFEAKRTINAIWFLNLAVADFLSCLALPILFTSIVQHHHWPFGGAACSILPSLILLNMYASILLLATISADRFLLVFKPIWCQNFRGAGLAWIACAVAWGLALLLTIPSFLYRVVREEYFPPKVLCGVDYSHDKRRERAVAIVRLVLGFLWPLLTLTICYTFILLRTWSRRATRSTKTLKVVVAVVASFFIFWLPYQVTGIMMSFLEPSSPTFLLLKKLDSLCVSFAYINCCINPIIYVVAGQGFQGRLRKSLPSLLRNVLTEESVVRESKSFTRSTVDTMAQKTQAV
Method: Adherent cells (CHO-K1 C5AR1 beta-arrestin cell line, DiscoverX, CA USA) are washed with PBS, detached by incubation with Dissociation Buffer (Gibco Cat #13151-014, 2 ml per 165 cm2 dish) for 3 minutes, then washed with 10 ml PBS (without Mg++ and Ca++) and counted. 7500 cells/384-well are seeded in 384-well plates (Cell culture plate MTP384 white Polystyrene, Corning, Cat #3570) in 20 μl/well Cell plating medium (F12 HAMs/10% FCS/1% P/S) and incubated at 37° C./5% CO2/24 h.
5 μl Antagonist at 6-fold end concentration or DMSO control is added to assay medium and subsequently 5 μl 1-10 nM C5a agonist at 6 fold end concentration. Cells are centrifuged for 1 min at 1000 rpm and incubated for 1.5 hour in at 37° C. Plates are equilibrated at room temperature for several minutes before adding 12 μl/well Detection Reagent (PathHunter Detection Kit, DiscoverX, Cat #93-0001). Plates are centrifuged for 1 min at 1000 rpm and incubated for 45 minutes at RT before being measured on a Fluostar Optima, BMG Labtech. IC50 values are calculated from a serial dilution range of antagonist using inhouse software and given in nmol/l.
The calculated IC50 values may fluctuate depending on the daily cellular assay performance. Fluctuations of this kind are known to those skilled in the art. Average IC50 values from several measurements are given as geometric mean values.

[4] = Gravimetric vapour sorption (GVS) hygroscopicity; type: physicochemical; settings: 25° C., mass change 40% to 80% RH, first adsorption scan
Method: Measurements are performed on a multi sample instrument SPS-100n (ProUmid, Ulm, Germany) operated in stepping mode at 25° C. The sample is allowed to equilibrate at 40% RH before starting a pre-defined humidity program (40-0-95-0-95-40% RH, steps of 5% ARH and with a maximal equilibration time of 24 hours per step are applied). About 20 to 30 mg of each sample is used. The hygroscopic classification is done on the basis of the European Pharmacopeia Technical Guide (1999, page 86), e.g., Non-hygroscopic: increase in mass is less than 0.2% mass/mass; slightly hygroscopic: increase in mass is less than 2% and equal to or greater than 0.2% mass/mass; hygroscopic: increase in mass is less than 15% and equal to or greater than 2% mass/mass. The mass change between 40% relative humidity and 80% relative humidity in the first adsorption scan is considered.

- HPLC 1 area compared to a reference that was stored at −20° C. for the same amount of time ([1]; closed vial for 30 days at 40° C. and 75% relative humidity): 79%
- HPLC 1 area compared to a reference that was stored at −20° C. for the same amount of time ([1]; closed vial for 30 days at room temperature and day light exposure): 57%
SMILES: Cc1cccc(F)c1N1CCC(N2Cc3cn(CC(C)(F)F)nc3N(Cc3ccccc3C(F)(F)F)C2=O)CC1 [Amorphous, 2-(2,2-Difluoro-propyl)-5-[1-(2-fluoro-6-methyl-phenyl)-piperidin-4-yl]-7-(2-trifluoromethyl-benzyl)-2,4,5,7-tetrahydro-pyrazolo[3,4-d]pyrimidin-6-one]

- logP [2]: 6.9
- IC50 [3]: 11 nM
SMILES: Cc1cccc(F)c1N1CCC(N2Cc3cn(CC(C)(F)F)nc3N(Cc3ccccc3C(F)(F)F)C2=O)CC1 [COMPOUND, 2-(2,2-Difluoro-propyl)-5-[1-(2-fluoro-6-methyl-phenyl)-piperidin-4-yl]-7-(2-trifluoromethyl-benzyl)-2,4,5,7-tetrahydro-pyrazolo[3,4-d]pyrimidin-6-one]

- Hygroscopicity as measured by GVS [4]: non-hygroscopic
- HPLC 1 area compared to a reference that was stored at −20° C. for the same amount of time ([1]; closed vial for 30 days at 40° C. and 75% relative humidity, listed as Form 1): 100%
- HPLC 1 area compared to a reference that was stored at −20° C. for the same amount of time ([1]; closed vial for 30 days at room temperature and day light exposure, listed as Form 1): 100%
SMILES: Cc1cccc(F)c1N1CCC(N2Cc3cn(CC(C)(F)F)nc3N(Cc3ccccc3C(F)(F)F)C2=O)CC1 [COMPOUND in crystalline form 1, 2-(2,2-Difluoro-propyl)-5-[1-(2-fluoro-6-methyl-phenyl)-piperidin-4-yl]-7-(2-trifluoromethyl-benzyl)-2,4,5,7-tetrahydro-pyrazolo[3,4-d]pyrimidin-6-one]

From US20220265658A1, “PHARMACEUTICAL COMPOSITION COMPRISING A TETRAHYDROPYRAZOLOPYRIMIDINONE COMPOUND” (Idorsia Pharmaceuticals Ltd., priority 2019, published 2022)
